Source: US12678509B2, “Inhibitor of apoptosis (IAP) protein antagonists” (Sanford Burnham Prebys Medical Discovery Institute, priority 2019, dated 2026)
pIC50: −log10 of the molar value. Where two headings read alike, the source gives them in different places.

Key:
AML-SH-075 = assay: Cell viability in patient derived AML samples (CellTiterGlo, 72 h); format: cell-based, human
Experimental: (§1) Patient AML samples were gathered (under IRB 13-6180) from Scripps MD Anderson, La Jolla, CA Fresh blood samples were subjected to gradient density centrifugation with Ficoll-Paque™ PLUS (17-1440-02, GE Healthcare) and peripheral blood mononuclear cells purified as per manufacturer's protocol.
(§2) 75 nL of 1000× serially diluted IAP inhibitors were spotted in triplicate onto 384-well tissue culture treated plates (Greiner) using a Labcyte Echo acoustic dispensing device. Patient-derived AML cells were maintained in mTeSR1^+1× supplements (Stemcell Technologies) and penicillin/streptomycin/L-glutamine (Omega Scientific Inc.) and Fungizone (HyClone). 25 μL of cell dilution were plated into 384-well plate containing the drugs and incubated for 72 h. Cell viability was assessed by adding 25 μL CellTiterGlo (Promega Corp.) on a Synergy 2 plate reader with Gen5 software (Biotek). % viability was calculated by normalizing luminescence to vehicle only controls (DMSO) in Microsoft Excel and plotted using GraphPad Prism 8. The IC50 values were calculated using log(inhibitor) vs. response—Variable slope (four parameters) equation. (FIG. 6)

AML-SH-065 = assay: as above; format: cell-based, human
Experimental: as §1, §2

AML-SH-074 = assay: as above; format: cell-based, human
Experimental: as §1, §2

[1] = Pharmacokinetic study in mice, snapshot PK; format: in vivo; conditions: female, C57BL/6J, mouse, plasma, ip, one hour after i.p. injection of 10 mg/kg
Experimental: All animal procedures were approved by the Sanford Burnham Prebys Medical Discovery Institute Institutional Animal Care and Use Committee and were performed according to the NIH guidelines for the Care and Use of Laboratory Animals. Adult female C57BL/6J were purchased from JAX laboratories and housed with free access to food and water on a 12 h light/dark cycle. Compounds were formulated in 5% DMSO, 10% Tween-80, and 85% dH2O and injected intraperitoneally (i.p.) into mice at doses of 10 mg/kg. For snapshot PK analysis, blood samples were collected retro-orbitally one hour after injection and for the time course PK study, blood samples were collected at 15 min, 30 min, 1 h, 2 h, 4 h, 6 h, 24 h time points. For the blood samples plasma was separated by centrifugation. Plasma samples were extracted with acetonitrile:water 4:1 with 0.1% formic acid containing indometacin as an internal standard. Samples were centrifuged and supernatants were diluted with acetonitrile:water and analyzed via LC-MS/MS on a Shimadzu Nexera X2 HPLC coupled to an AB Sciex 6500 QTRAP.
Plasma exposure of selected compounds at 1 h compared.
Plasma levels of parent compound determined one hour after i.p. injection of 10 mg/kg

SKOV-3 = assay: Cell viability (CellTiter-Glo), 48 hrs; format: cell-based; conditions: Homo sapiens, SK-OV-3, 48 h, read-out: SKOV-3 Viability 48 h IC50
[2] = tested on: cIAP1 degradation and p100 cleavage in JLat 10.6 cells; assay: cIAP1 degradation and p100 cleavage (western blot) with GFP expression; format: cell-based; conditions: 24 hours, different concentrations (FIG. 4)
Experimental: JLat 10.6 cells were treated with different concentrations of compound 18a for 24 hours. GFP expression indicating latency reversal was measured by flow cytometry. cIAP1 degradation and p100 cleavage were assessed by western blot using the antibodies AF8181 (R&D Systems) and #4882 (Cell Signaling Technology), respectively.

[3] = tested on: latently infected cell line Jurkat 2D10; assay: Combination with other LRA, Bliss Independence model, GFP expression; format: cell-based; conditions: Jurkat 2D10, 48 hours, with JQ1, I-BET 151, Bryostatin, Ingenol-3-angelate
Experimental: Compound 18a was also tested in combination with other LRA reagents for synergistic activation of the latently infected cell line Jurkat 2D10. Jurkat 2D10 cells were treated with combinations of compound 18a and BET inhibitors (JQ1, I-BET 151) or PKC agonists (Bryostatin, Ingenol-3-angelate) for 48 hours. Reversal of HW latency was evaluated by analyzing GFP expression using flow cytometry. Synergy was assessed with the Bliss Independence model where the observed effect of a combination of compounds f12 is compared to the expected effect E(f12) that is calculated based on the observed effects of the individual compounds f1 and f2 using the formula E(f12)=f1+J2−(f1*f2). The difference between the observed effect of the combined compounds (f12) and the expected combined effect of the two compounds E(f12) is given as the excess over Bliss score (EOB). An EOB value greater than 0 indicates synergy between the compounds.

MOLM 13 = assay: Cell viability (CellTiter-Glo), 6-day compound treatment; format: cell-based, Human; conditions: for pIC50: Homo sapiens, MOLM-13, 144 h
In short: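 Cells plated at 1700 per well, left overnight at 37° C./5% CO2, then exposed to 10-fold compound dilutions for 6 days […]. Viability by CellTiter-Glo luminescence; IC50 from nonlinear regression fit.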

NB-4 = assay: Cell viability (CellTiter-Glo); format: cell-based, Human; conditions: for pIC50: Homo sapiens

SMILES: CN[C@@H](C)C(=O)N[C@H]1CCS[C@H]2CC(C)(C)[C@@H](C(=O)N[C@H]3c4ccccc4C[C@H]3OCC#CC#CCO[C@@H]3Cc4ccccc4[C@@H]3NC(=O)[C@H]3N4C(=O)[C@@H](NC(=O)[C@H](C)NC)CCS[C@H]4CC3(C)C)N2C1=O [Compound 18a, (2S)-1-{[(4S,7S,9aS)-74{(1S,2R)-2-[(6-{[(1S,2R)-1-({[(4S,7S,9aS)-8,8-Dimethyl-4-{[(2S)-2-(methylammonio)propanoyl]amino}-5-oxooctahydropyrrolo[2,1-b][1,3]thiazepin-7-yl]carbonyl}amino)-2,3-dihydro-1H-inden-2-yl]oxy}hexa-2,4-diyn-1-yl)oxy]-2,3-dihydro-1H-inden-1-yl}carbamoyl)-8,8-dimethyl-5-oxooctahydropyrrolo[2,1-b][1,3]thiazepinyl]amino}-N-methyl-1-oxopropan-2-ammonium dichloride]
- pIC50 (AML-SH-075; Homo sapiens, 72 h, read-out: AML-SH-075 IC50): 7.00 to 8.00
- AML-SH-075 Efficacy (AML-SH-075; patient derived AML sample AML-SH-075, 72 h, cell viability at max. concentration): I (I < 10%)
- pIC50 (AML-SH-065; Homo sapiens, 72 h, read-out: AML-SH-065 IC50): > 8.00
- AML-SH-065 Efficacy (AML-SH-065; patient derived AML sample AML-SH-065, 72 h, cell viability at max. concentration): I (I < 10%)
- pIC50 (AML-SH-074; Homo sapiens, 72 h, read-out: AML-SH-074 IC50): 6.00 to 7.00
- AML-SH-074 Efficacy (AML-SH-074; patient derived AML sample AML-SH-074, 72 h, cell viability at max. concentration): I (I < 10%)
- concentration at 1 h [1]: 3.52 µM
- pIC50 (SKOV-3): > 8.00
- cIAP1 degradation and p100 cleavage [2]: correlated with HW latency reversal
- synergy with LRA compounds in reversal of HIV latency [3]: synergizes with the tested LRA compounds to reverse HW latency
- pIC50 (MOLM 13; read-out: IC50 6 d): 7.00 to 8.00
- pIC50 (MOLM 13; read-out: MOLM 13 Viability 6 d IC50): 7.00 to 8.00
- Cell viability at max. concentration (MOLM 13; MOLM 13, 6 d): I (I<10%)
- pIC50 (NB-4; NB-4, 72 h, read-out: NB-4 Viability 72 h IC50): > 8.00
- pIC50 (NB-4; NB-4, 144 h, read-out: IC50 6 d): > 8.00
- Cell viability at max. concentration (NB-4; NB-4, 6 d): I (I<10%)
